Assay results taken from patent US20170150719A1, “FUNGICIDAL PYRAZOLES AND THEIR MIXTURES” (E I DU PONT DE NEMOURS AND COMPANY, priority 2010, published 2017).

Assays:
[1] = system: Phytophthora infestans; assay: whole plant or invertebrate; format: in vivo; details: Phytophthora infestans, in Solanum lycopersicum, read-out: Test C rating (disease control)
[2] = system: Septoria tritici; assay: Test F: wheat leaf blotch, preventive spray on wheat seedlings, visual disease rating; format: in vivo; details: Zymoseptoria tritici, 100 = 100% disease control, 0 = no disease control relative to the controls
Excerpt: (§1) A hyphen (-) indicates no test results.

[3] = system: Puccinia recondita f. sp. tritici; assay: Test G: wheat leaf rust, spray after inoculation (curative) on wheat seedlings, visual disease rating; format: in vivo; details: sprayed after inoculation, 100 = 100% disease control, 0 = no disease control
Excerpt: as §1

[4] = system: Blumeria graminis f. sp. tritici; assay: Test K (K1-K5): wheat powdery mildew, Compound 81 alone and in mixtures, observed and Colby expected control; format: in vivo; details: for Test K4 Obsd, disease control rating / Test K5 Obsd, disease control rating: wheat powdery mildew
[5] = system: Septoria tritici; assay: Test M (M1-M5): wheat leaf blotch, Compound 81 alone and in mixtures, observed and Colby expected control; format: in vivo
[6] = system: Puccinia recondita f. sp. tritici; assay: Test H: wheat leaf rust, preventive spray on wheat seedlings, visual disease rating; details: read-out: Test H rating (disease control), wheat leaf rust, sprayed the day before inoculation; 100 = 100% disease control, 0 = no disease control
[7] = system: Botrytis cinerea; assay: Test A: tomato Botrytis, preventive spray on tomato seedlings, visual disease rating; details: Botrytis cinerea, in Solanum lycopersicum, read-out: Test A rating (disease control), tomato Botrytis; 100 = 100% disease control, 0 = no disease control relative to the controls
[8] = system: Blumeria graminis f. sp. tritici; assay: Test I: wheat powdery mildew, preventive spray on wheat seedlings, visual disease rating; details: Blumeria graminis, in Triticum aestivum, read-out: Test I rating (disease control), wheat powdery mildew; 100 = 100% disease control, 0 = no disease control relative to the controls
[9] = system: Septoria nodorum; assay: Test E: Septoria glume blotch, preventive spray on wheat seedlings, visual disease rating; details: Parastagonospora nodorum, in Triticum aestivum, read-out: Test E rating (disease control), Septoria glume blotch; 100 = 100% disease control, 0 = no disease control relative to the controls

Cc1nn(C)c(Nc2c(F)cc(Cl)cc2F)c1-c1ccc(F)cc1Cl [Compound 81, N-(4-chloro-2,6-difluorophenyl)-4-(2-chloro-4-fluorophenyl)-1,3-dimethyl-1H-pyrazole-5-amine] was tested. Which pest or weed control at 200 µg/mL [1] did it give?
Its pest or weed control at 200 µg/mL is 0%.

And the pest or weed control at 200 µg/mL [2]?
The pest or weed control at 200 µg/mL was 100%.

And the pest or weed control at 200 µg/mL [3]?
The pest or weed control at 200 µg/mL was 99%.

What about the “Test K1 Obsd” value ([4]; Compound 81 1 ppm alone) of the same compound?
The value was 0%.

And the “Test K2 Obsd” value ([4]; Compound 81 1 ppm alone)?
The value was 91%.

And the “Test K3 Obsd” value ([4]; Compound 81 1 ppm alone)?
The value was 0%.

And the “Test K1 Obsd” value ([4]; Compound 81 2 ppm alone)?
Its value is 87%.

And the “Test K2 Obsd” value ([4]; Compound 81 2 ppm alone)?
Its value is 91%.

What about the “Test K3 Obsd” value ([4]; Compound 81 2 ppm alone) of the same compound?
The value was 0%.

And the “Test K1 Obsd” value ([4]; Compound 81 5 ppm alone)?
Its value is 99%.

And the “Test K2 Obsd” value ([4]; Compound 81 5 ppm alone)?
Its value is 91%.

And the “Test K3 Obsd” value ([4]; Compound 81 5 ppm alone)?
Its value is 90%.

And the “Test K1 Obsd” value ([4]; Compound 81 10 ppm alone)?
The value was 100%.

What about the “Test K2 Obsd” value ([4]; Compound 81 10 ppm alone) of the same compound?
The value was 100%.

What about the “Test K3 Obsd” value ([4]; Compound 81 10 ppm alone) of the same compound?
Its value is 99%.

And the “Test K4 Obsd, disease control rating” value ([4]; Compound 81 1 ppm alone)?
Its value is 0%.

What about the “Test K5 Obsd, disease control rating” value ([4]; Compound 81 1 ppm alone) of the same compound?
The value was 0%.

And the “Test K4 Obsd, disease control rating” value ([4]; Compound 81 2 ppm alone)?
Its value is 0%.

And the “Test K5 Obsd, disease control rating” value ([4]; Compound 81 2 ppm alone)?
The value was 0%.

And the “Test K4 Obsd, disease control rating” value ([4]; Compound 81 5 ppm alone)?
Its value is 0%.

And the “Test K5 Obsd, disease control rating” value ([4]; Compound 81 5 ppm alone)?
The value was 0%.

And the “Test K5 Obsd, disease control rating” value ([4]; Compound 81 10 ppm alone)?
The value was 100%.

What about the “Test M1 Obsd, disease control rating” value ([5]; Compound 81 0.01 ppm alone) of the same compound?
The value was 0%.

What about the “Test M2 Obsd, disease control rating” value ([5]; Compound 81 0.01 ppm alone) of the same compound?
Its value is 0%.

What about the “Test M1 Obsd, disease control rating” value ([5]; Compound 81 0.1 ppm alone) of the same compound?
Its value is 0%.

And the “Test M2 Obsd, disease control rating” value ([5]; Compound 81 0.1 ppm alone)?
The value was 0%.

And the “Test M1 Obsd, disease control rating” value ([5]; Compound 81 1 ppm alone)?
The value was 86%.

What about the “Test M2 Obsd, disease control rating” value ([5]; Compound 81 1 ppm alone) of the same compound?
The value was 95%.

What about the “Test M1 Obsd, disease control rating” value ([5]; Compound 81 10 ppm alone) of the same compound?
Its value is 100%.

And the “Test M2 Obsd, disease control rating” value ([5]; Compound 81 10 ppm alone)?
Its value is 100%.

And the “Test M3 Obsd disease control rating” value ([5]; Compound 81 alone 0.01 ppm)?
Its value is 0%.

What about the “Test M4 Obsd disease control rating” value ([5]; Compound 81 alone 0.01 ppm) of the same compound?
The value was 0%.

What about the “Test M5 Obsd disease control rating” value ([5]; Compound 81 alone 0.01 ppm) of the same compound?
The value was 0%.

And the “Test M3 Obsd disease control rating” value ([5]; Compound 81 alone 0.1 ppm)?
Its value is 0%.

And the “Test M4 Obsd disease control rating” value ([5]; Compound 81 alone 0.1 ppm)?
The value was 23%.

What about the “Test M5 Obsd disease control rating” value ([5]; Compound 81 alone 0.1 ppm) of the same compound?
Its value is 3%.

What about the “Test M3 Obsd disease control rating” value ([5]; Compound 81 alone 1 ppm) of the same compound?
The value was 52%.

What about the “Test M4 Obsd disease control rating” value ([5]; Compound 81 alone 1 ppm) of the same compound?
Its value is 66%.

What about the “Test M5 Obsd disease control rating” value ([5]; Compound 81 alone 1 ppm) of the same compound?
Its value is 90%.

And the “Test M3 Obsd disease control rating” value ([5]; Compound 81 alone 10 ppm)?
The value was 100%.

What about the “Test M4 Obsd disease control rating” value ([5]; Compound 81 alone 10 ppm) of the same compound?
The value was 100%.

And the “Test M5 Obsd disease control rating” value ([5]; Compound 81 alone 10 ppm)?
The value was 100%.

And the pest or weed control at 200 µg/mL [6]?
Its pest or weed control at 200 µg/mL is 100%.

What about the pest or weed control at 200 µg/mL [7] of the same compound?
The pest or weed control at 200 µg/mL was 100%.

What about the pest or weed control at 200 µg/mL [8] of the same compound?
Its pest or weed control at 200 µg/mL is 100%.

What about the pest or weed control at 200 µg/mL [9] of the same compound?
The pest or weed control at 200 µg/mL was 90%.
